Measurements published in patent US20240239788A1, “SMALL MOLECULE INHIBITORS OF KRAS G12D MUTANT” (Merck Sharp & Dohme LLC, priority 2021, published 2024).
Structures can show the parent of a compound that is named as a salt. Where two headings read alike, the source gives them in different places.

Experiments:
[1] = target: KRAS protein containing G12D mutation (Homo sapiens (Human), UniProt P01116, G12D); assay: SOS-catalyzed nucleotide exchange assay (GNE), TR-FRET; type: biochemical; details: biotinylated KRAS G12D, SOS and GTP, 60-minute incubation
Method: Compounds are added to this complex and then after a 60-minute incubation time the mixture is treated with SOS and unlabeled GTP. Small molecule inhibitors stabilize the Bodipy-GDP complex whereas the untreated protein rapidly exchanges Bodipy-GDP for unlabeled GTP resulting in reduced TR-FRET signal.
This solution is referred to as biotinylated KRAS G12D stock solution.

[2] = test system: AsPC-1 cells containing homozygous KRAS-G12D activating mutation; assay: Cellular phospho-ERK assay with 10% FBS (Examples 107a-256); type: cell-based
Method: 5% CO2 for 2 hours. […] Assay plates were read on a EnVision Multimode Plate Reader (PerkinElmer) and the ratio of p-Erk vs total Erk in each well was used as the final readout.

[3] = Homo sapiens, ASPC1, 2 h, read-out: IC50 (nM) pERK (cell with FBS 10%), AsPC-1 cells, 10% fetal bovine serum, 2 hours, ratio of p-Erk vs total Erk
[4] = read-out: IC50 (nM) pERK (cell with FBS 10%), AsPC-1 cells, 10% fetal bovine serum, 2 hours, ratio of p-Erk vs total Erk

Sequence of KRAS protein containing G12D mutation (P01116 other isoform, or with tags, fused parts or gaps G12D (already in the parent)): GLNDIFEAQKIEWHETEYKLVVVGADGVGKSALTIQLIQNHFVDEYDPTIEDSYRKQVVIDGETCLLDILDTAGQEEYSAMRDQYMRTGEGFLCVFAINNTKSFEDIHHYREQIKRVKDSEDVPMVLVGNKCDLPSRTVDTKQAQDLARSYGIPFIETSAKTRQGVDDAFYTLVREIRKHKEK

Row | SMILES | IC50 [1] | IC50 [2, 3] | IC50 [2, 4] | IC50 ([2]; Homo sapiens, ASPC1, 2 h, read-out: IC50 (nM) pERK (cell with FBS 10%))
1 | C[C@]12CC[C@H](CN(c3nc(OC[C@@]45CCCN4C[C@H](F)C5)nc4c(F)c(-c5nc(N)nc6cccc(Cl)c56)c(F)cc34)C1)N2 [Ex. 188, 5-chloro-6′,8′-difluoro-2′-(((2R,7aS)-2-fluoro-tetrahydro-1H-pyrrol-izin-7a(5H)-yl)meth-oxy)-4'-((1S,5R)-1-methyl-3,8-diaza-bicyclo[3.2.1]octan-3-yl)-[4,7′-biquinazolin]-2-amine] | 3400 nM | 30000 nM | – | –
2 | Fc1cc2c(N3C[C@H]4CC[C@@H](C3)N4)nc(OC[C@@]34CCCN3C[C@H](F)C4)nc2c(F)c1-c1ccnc2cccc(Cl)c12 [Ex. 194, 4-((1R,5S)-3,8-diaza-bicyclo[3.2.1]octan-3-yl)-7-(5-chloroquinolin-4-yl)-6,8-difluoro-2-(((2R,7aS)-2-fluoro-tetrahydro-1H-pyrrol-izin-7a(5H)-yl)meth-oxy)quinazoline] | 1920 nM | 11800 nM | – | –
3 | C#Cc1cccc2cc3[nH]ncc3c(-c3c(F)cc4c(N5C[C@H]6CC[C@@](C)(C5)N6)nc(OC[C@@]56CCCN5C[C@H](F)C6)nc4c3F)c12 [Ex. 195, 4-(6,8-difluoro-2-(((2R, 7aS)-2-fluorotetra-hydro-1H-pyrrolizin-7a(5H)-yl)methoxy)-4-((1S,5R)-1-methyl-3,8-diazabicyclo[3.2.1]-octan-3-yl)quinazolin-7-yl)-5-ethynyl-1H-benzo[f]indazole] | 4.36 nM | 79.6 nM | – | –
4 | C#Cc1ccc(F)c2cccc(-c3c(F)cc4c(N5C[C@H]6CC[C@@](C)(C5)N6)nc(OC[C@@]56CCCN5C[C@H](F)C6)nc4c3F)c12 [Ex. 196, 7-(8-ethynyl-5-fluoro-naphthalen-1-yl)-6,8-difluoro-2-(((2R,7aS)-2-fluorotetrahydro-1H-pyrrolizin-7a(5H)-yl)-methoxy)-4-((1S,5R)-1-methyl-3,8-diaza-bicyclo[3.2.1]octan-3-yl)quinazoline] | 45.7 nM | 3410 nM | – | –
5 | Oc1c(F)cc(Cl)c(Cl)c1-c1c(Cl)cc2c(N3C[C@H]4CC[C@@H](C3)N4)nc(OC[C@@]34CCCN3C[C@H](F)C4)nc2c1F [Ex. 199, 2-(4-((1R,5S)-3,8-diazabicyclo[3.2.1]-octan-3-yl)-6-chloro-8-fluoro-2-(((2R,7aS)-2-fluorotetrahydro-1H-pyrrolizin-7a(5H)-yl)-methoxy)quinazolin-7-yl)-3,4-dichloro-6-fluorophenol] | 2620 nM | 30000 nM | – | –
6 | CN(C[C@@]1(COc2nc(N3C[C@H]4CC[C@@](C)(C3)N4)c3cc(F)c(-c4cc(O)cc5cccc(Cl)c45)c(F)c3n2)CC1(F)F)[C@@H]1CCC[C@H]1O [Ex. 217a, 5-chloro-4-(2-(((R)-2,2-difluoro-1-((((1R,2R)-2-hydroxycyclopentyl)-(methyl)amino)methyl)cyclopropyl)methoxy)-6,8-difluoro-4-((1S,5R)-1-methyl-3,8-diazabicyclo[3.2.1]octan-3-yl)quinazolin-7-yl)naphthalen-2-ol] | 12.7 nM | 2640 nM | – | –
7 | CN(C[C@@]1(COc2nc(N3C[C@H]4CC[C@@](C)(C3)N4)c3cc(F)c(-c4cc(O)cc5cccc(Cl)c45)c(F)c3n2)CC1(F)F)[C@@H]1CCC[C@H]1O [Ex. 217b] | 675 nM | – | 8570 nM | –
8 | COCCN(C)C[C@@]1(COc2nc(N3CC4CC[C@@](C)(C3)N4)c3cc(F)c(-c4c(C(F)(F)F)c(C)cc5[nH]ncc45)c(F)c3n2)CC1(F)F [Ex. 223, (1S,5R)-3-(2-(((R)-2,2-difluoro-1-(((2-methoxyethyl)(methyl)amino)-methyl)cyclopropyl)methoxy)-6,8-difluoro-7-(6-methyl-5-(trifluorometh-yl)-1H-indazol-4-yl)quinazolin-4-yl)-1-methyl-3,8-diazabicyclo[3.2.1]-ocan-8-ium 2,2,2-trifluoroacetate] | 425 nM | 27300 nM | – | –
9 | Cc1cc(N)nc(-c2c(Cl)cc3c(N4C[C@H]5CC[C@@H](C4)N5)nc(OC[C@@]45CCCN4C[C@H](F)C5)nc3c2F)c1C(F)(F)F [Ex. 228b, 6-(4-((1R,5S)-3,8-diazabicyclo[3.2.1]octan-3-yl)-6-chloro-8-fluoro-2-(((2R,7aS)-2-fluorotetrahydro-1H-pyrrolizin-7a(5H)-yl)methoxy)quinazolin-7-yl)-4-methyl-5-(trifluoromethyl)pyridin-2-amine] | 2.43 nM | – | – | 64.4 nM
10 | Cc1n[nH]c2ncc(C(F)(F)F)c(-c3c(F)cc4c(N5C[C@H]6CC[C@@H](C5)N6)nc(OC[C@@]56CCCN5C[C@H](F)C6)nc4c3F)c12 [Ex. 234, 4-((1R,5S)-3,8-diazabicyclo[3.2.1]octan-3-yl)-6,8-difluoro-2-(((2R,7aS)-2-fluorotetrahydro-1H-pyrrolizin-7a(5H)-yl)methoxy)-7-(3-methyl-5-(trifluoromethyl)-1H-pyrazolo[3.4-b]pyridin-4-yl)quinazoline] | 64 nM | – | 785 nM | –
11 | Cc1c(F)c(N)nc(-c2c(Cl)cc3c(N4C[C@H]5CC[C@@H](C4)N5)nc(OC[C@@]45CCCN4C[C@H](F)C5)nc3c2F)c1C(F)(F)F [Ex. 236] | 3.11 nM | – | 68.7 nM | –
12 | Cc1cc(N)nc(-c2c(F)cc3c(N4C[C@H]5CC[C@@H](C4)N5)nc(OC[C@@]45CCCN4C[C@H](F)C5)nc3c2F)c1C1CC1 [Ex. 237, 6-(4-((1R,5S)-3,8-diazabicyclo[3.2.1]octan-3-yl)-6,8-difluoro-2-(((2R,7aS)-2-fluorotetrahydro-1H-pyrrolizin-7a(5H)-yl)methoxy)quinazolin-7-yl)-5-cyclopropyl-4-methylpyridin-2-amine] | 57.6 nM | 508 nM | – | –
13 | Cc1cc(N)nc(-c2c(Cl)cc3c(N4C[C@H]5CC[C@@](C)(C4)N5)nc(OC[C@@]45CCCN4C[C@H](F)C5)nc3c2F)c1C(F)(F)F [Ex. 238a, 6-(6-chloro-8-fluoro-2-(((2R,7aS)-2-fluorotetrahydro-1H-pyrrolizin-7a(5H)-yl)methoxy)-4-((1S,5R)-1-methyl-3,8-diazabicyclo[3.2.1]octan-3-yl)quinazolin-7-yl)-4-methyl-5-(trifluoromethyl)pyridin-2-amine] | 25.7 nM | 1590 nM | – | –
14 | C[C@]12CC[C@H](CN(c3nc(OC[C@@H]4CC[C@]5(CO)CCCN45)nc4c(F)c(-c5cc(O)cc6cccc(Cl)c56)c(F)cc34)C1)N2 [Ex. 243b, 5-chloro-4-(6,8-difluoro-2-(((3S,7aS)-7a-(hydroxymethyl)hexahydro-1H-pyrrolizin-3-yl)methoxy)-4-((1S,5R)-1-methyl-3,8-diazabicyclo[3.2.1]octan-3-yl)quinazolin-7-yl)naphthalen-2-ol] | 23.1 nM | 20500 nM | – | –
15 | CN(C)CC1(COc2nc(N3C[C@H]4CC[C@@](C)(C3)N4)c3cc(F)c(-c4cc(O)cc5ccccc45)c(F)c3n2)CC1 [Example 115, 4-(2-((1-((dimethylamino)methyl)cyclopropyl)methoxy)-6,8-difluoro-4-((1S,5R)-1-methyl-3,8-diazabicyclo [3.2.1]octan-3-yl)quinazolin-7-yl) naphthalen-2-ol] | 10.5 nM | 1470 nM | – | –
16 | CN1CCC[C@H]1COc1nc(N2CC3CC[C@@](C)(C2)N3)c2cc(F)c(-c3cc(O)cc4ccccc34)c(F)c2n1 [Example 118, 4-(6,8-difluoro-4-((1S,5R)-1-methyl-3,8-diazabicyclo [3.2.1]octan-3-yl)-2-(((S)-1-ethylpyrrolidin-2-yl)methoxy)quinazolin-7-l)naphthalen-2-ol] | 82.6 nM | 1810 nM | – | –
17 | C[C@]12CC[C@H](CN(c3nc(OC[C@H]4CCNC4)nc4c(F)c(-c5cc(O)cc6ccccc56)c(Cl)cc34)C1)N2 [Example 119, 4-(6-chloro-8-fluoro-4-((1S,5R)-1-methyl-3,8-diazabicyclo[3.2.1]octan-3-yl)-2-(((S)-pyrrolidin-3-yl)methoxy)quinazolin-7-yl)naphthalen-2-ol, TFA] | 1440 nM | 30000 nM | – | –
18 | C[C@]12CC[C@H](CN(c3nc(OC[C@@H]4CCN(C5CCCCC5O)C4)nc4c(F)c(-c5cc(O)cc6ccccc56)c(Cl)cc34)C1)N2 (stereo partly drawn) [Example 121, 4-(6-chloro-8-fluoro-2-(((3R)-1-(2-hydroxycyclohexyl)pyrrolidin-3-yl)methoxy)-4-((1S,5R)-1-methyl-3,8-diazabicyclo[3.2.1]octan-3-yl)quinazolin-7-yl)naphthalen-2-ol, TFA] | 615 nM | 11400 nM | – | –
19 | C[C@]12CC[C@H](CN(c3nc(OC[C@@H]4CCNC4)nc4c(F)c(-c5cc(O)cc6ccccc56)c(Cl)cc34)C1)N2 [Example 122, 4-(6-chloro-8-fluoro-4-((1S,5R)-1-methyl-3,8-diazabicyclo[3.2.1]octan-3-yl)-2-(((R)-pyrrolidin-3-yl)methoxy)quinazolin-7-yl)naphthalen-2-ol, TFA] | 964 nM | 30000 nM | – | –
20 | C[C@@]12CC[C@H](CN(c3nc(OC[C@@]45CCCN4C[C@H](F)C5)nc4c(F)c(-c5cccc6ccc(F)c(F)c56)c(F)cc34)C1)N2 [compound 197, 7-(7,8-difluoronaph-thalen-1-yl)-6,8-difluoro-2-(((2R,7aS)-2-fluorotetrahydro-1H-pyrrolizin-7a(5H)-yl)-methoxy)-4-((1S,5R)-1-methyl-3,8-diaza-bicyclo[3.2.1]octan-3-yl)quinazoline] | 52.4 nM | 4470 nM | – | –
